Values joined by “and” are separate entries in the source; they are usually repeats but may differ in a detail not shown here. Identical values can stand only once.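 Cells were grown in 96-well plates and exposed to each compound for 48 hours at five concentrations; endpoints were interpolated linearly between bracketing concentrations, or set to the highest concentration if not reached. Abbreviation: GI50, concentration required for 50% inhibition of growth. The concentration for full growth arrest is given as TGI.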
Columns and labels:
Assay in all cases: NCI tumour cell line growth inhibition, 48 h
BT-549 breast = tested on: BT-549 breast
DLD-1 colon = tested on: DLD-1 colon
DMS 114 small cell lung = tested on: DMS 114 small cell lung
DMS 273 small cell lung = tested on: DMS 273 small cell lung
DU-145 prostate = tested on: DU-145 prostate
HOP-18 NSCLC = tested on: HOP-18 NSCLC
HS 578T breast = tested on: HS 578T breast
KM20L2 colon = tested on: KM20L2 colon
LXFL 529 NSCLC = tested on: LXFL 529 NSCLC
M19-MEL melanoma = tested on: M19-MEL melanoma
MDA-MB-231 breast = tested on: MDA-MB-231 breast
MDA-N = tested on: MDA-N
PC-3 prostate = tested on: PC-3 prostate
RXF-631 renal = tested on: RXF-631 renal
SK-MEL-28 melanoma = tested on: SK-MEL-28 melanoma
SK-OV-3 ovarian = tested on: SK-OV-3 ovarian
SNB-78 CNS = tested on: SNB-78 CNS
SW-620 colon = tested on: SW-620 colon
T-47D breast = tested on: T-47D breast
XF 498 CNS = tested on: XF 498 CNS
786-0 renal = tested on: 786-0 renal
A498 renal = tested on: A498 renal
A549 NSCLC = tested on: A549 NSCLC
ACHN renal = tested on: ACHN renal
CAKI-1 renal = tested on: CAKI-1 renal
CCRF-CEM leukemia = tested on: CCRF-CEM leukemia
COLO 205 colon = tested on: COLO 205 colon
EKVX NSCLC = tested on: EKVX NSCLC
HCC-2998 colon = tested on: HCC-2998 colon
HCT-116 colon = tested on: HCT-116 colon
HL-60(TB) leukemia = tested on: HL-60(TB) leukemia
HOP-62 NSCLC = tested on: HOP-62 NSCLC
HOP-92 NSCLC = tested on: HOP-92 NSCLC
HT29 colon = tested on: HT29 colon
IGROV1 ovarian = tested on: IGROV1 ovarian
K-562 leukemia = tested on: K-562 leukemia
KM12 colon = tested on: KM12 colon
LOX IMVI melanoma = tested on: LOX IMVI melanoma
M14 melanoma = tested on: M14 melanoma
MALME-3M melanoma = tested on: MALME-3M melanoma
MOLT-4 leukemia = tested on: MOLT-4 leukemia
NCI-H226 lung = tested on: NCI-H226 lung
NCI-H23 lung = tested on: NCI-H23 lung
NCI-H522 lung = tested on: NCI-H522 lung
OVCAR-3 ovarian = tested on: OVCAR-3 ovarian
OVCAR-4 ovarian = tested on: OVCAR-4 ovarian
OVCAR-5 ovarian = tested on: OVCAR-5 ovarian
OVCAR-8 ovarian = tested on: OVCAR-8 ovarian
RXF 393 renal = tested on: RXF 393 renal
SF-268 CNS = tested on: SF-268 CNS
SF-295 CNS = tested on: SF-295 CNS
SF-539 CNS = tested on: SF-539 CNS
SK-MEL-2 melanoma = tested on: SK-MEL-2 melanoma
SK-MEL-5 melanoma = tested on: SK-MEL-5 melanoma
SN12C renal = tested on: SN12C renal
SNB-19 CNS = tested on: SNB-19 CNS
SNB-75 CNS = tested on: SNB-75 CNS
SR leukemia = tested on: SR leukemia
TK-10 renal = tested on: TK-10 renal
U251 CNS = tested on: U251 CNS
UACC-257 melanoma = tested on: UACC-257 melanoma
UACC-62 melanoma = tested on: UACC-62 melanoma
UO-31 renal = tested on: UO-31 renal

Cc1cc2c(C(C)C)c(O)c(O)c(C=O)c2c(O)c1-c1c(C)cc2c(C(C)C)c(O)c(O)c(C=O)c2c1O
TGI (BT-549 breast): 7.42 µM and 41.7 µM and 29.8 µM
TGI (DLD-1 colon): 15.5 µM
TGI (DMS 114 small cell lung): 9.21 µM
TGI (DMS 273 small cell lung): 18.3 µM
TGI (DU-145 prostate): 4.04 µM and 36.8 µM and 29.4 µM
TGI (HOP-18 NSCLC): 11.3 µM
TGI (HS 578T breast): 13.5 µM and 36 µM and 27.8 µM
TGI (KM20L2 colon): 11.4 µM
TGI (LXFL 529 NSCLC): 8.26 µM
TGI (M19-MEL melanoma): 11.4 µM
GI50 (MDA-MB-231 breast): 14.8 µM and 6.06 µM
TGI (MDA-MB-231 breast): 34.5 µM and 16.6 µM
TGI (MDA-N): > 100 µM
TGI (PC-3 prostate): 7.11 µM and 33.8 µM and 24.5 µM
TGI (RXF-631 renal): 25.3 µM
GI50 (SK-MEL-28 melanoma): 2.39 µM and 18 µM and 9.01 µM
TGI (SK-OV-3 ovarian): 8.26 µM and 50.9 µM and 31 µM
TGI (SNB-78 CNS): 25.8 µM
TGI (SW-620 colon): 30.8 µM [middle of 4 runs]
TGI (T-47D breast): 7.76 µM and 50.5 µM and 26.4 µM
TGI (XF 498 CNS): 5.55 µM

[C-]#[N+]C(C)(C)C[C@H]1CC(C)C2CCC(C)C3([N+]#[C-])CCC(=C)C1[C@H]23 (stereo partly specified)
TGI (786-0 renal): 15.3 µM
TGI (A498 renal): 23.9 µM
TGI (A549 NSCLC): 21.7 µM
TGI (ACHN renal): 6.58 µM
TGI (CAKI-1 renal): 20.1 µM
TGI (CCRF-CEM leukemia): > 50 µM
TGI (COLO 205 colon): 0.65 µM
TGI (DLD-1 colon): 9.29 µM
TGI (DMS 273 small cell lung): 2.55 µM
TGI (EKVX NSCLC): 35.8 µM
TGI (HCC-2998 colon): 14.7 µM
TGI (HCT-116 colon): 6.6 µM
TGI (HL-60(TB) leukemia): 12.6 µM
TGI (HOP-18 NSCLC): 14.4 µM
TGI (HOP-62 NSCLC): 19.3 µM
TGI (HOP-92 NSCLC): 0.256 µM
TGI (HT29 colon): 11.7 µM
TGI (IGROV1 ovarian): 47.4 µM
TGI (K-562 leukemia): > 50 µM
TGI (KM12 colon): 11.8 µM
TGI (KM20L2 colon): 11.6 µM
TGI (LOX IMVI melanoma): 0.421 µM
TGI (LXFL 529 NSCLC): 23.4 µM
TGI (M14 melanoma): 9.93 µM
TGI (M19-MEL melanoma): 9.43 µM
TGI (MALME-3M melanoma): 25.3 µM
TGI (MOLT-4 leukemia): 5.25 µM
TGI (NCI-H226 lung): 10.7 µM
TGI (NCI-H23 lung): 19.6 µM
TGI (NCI-H522 lung): 12.2 µM
TGI (OVCAR-3 ovarian): 14.1 µM
TGI (OVCAR-4 ovarian): 13.1 µM
TGI (OVCAR-5 ovarian): 8.49 µM
TGI (OVCAR-8 ovarian): 9.22 µM
TGI (RXF 393 renal): 10.5 µM
TGI (RXF-631 renal): 6.58 µM
TGI (SF-268 CNS): 10.5 µM
TGI (SF-295 CNS): 24.1 µM
TGI (SF-539 CNS): 13.7 µM
TGI (SK-MEL-2 melanoma): 2.67 µM
TGI (SK-MEL-28 melanoma): > 50 µM
TGI (SK-MEL-5 melanoma): 5 µM
TGI (SK-OV-3 ovarian): 45.3 µM
TGI (SN12C renal): 8.85 µM
TGI (SNB-19 CNS): 17.5 µM
TGI (SNB-75 CNS): 49.7 µM
TGI (SNB-78 CNS): 12 µM
TGI (SR leukemia): 8.74 µM
TGI (SW-620 colon): 12.7 µM
TGI (TK-10 renal): 21.4 µM
TGI (U251 CNS): 11.8 µM
TGI (UACC-257 melanoma): 10.9 µM
TGI (UACC-62 melanoma): 11.5 µM
TGI (UO-31 renal): 8.66 µM
TGI (XF 498 CNS): 10.1 µM

— PubChem BioAssay (NCI)
